From US20230074545A1, “TREATMENT OF CANCER WITH CDK12/13 INHIBITORS” (Kinnate Biopharma Inc., priority 2019, published 2023)

Tests used:
[1] = tested on: HCC70 tumors; assay: HCC70 mouse xenograft model of triple-negative breast cancer; assay type: in vivo, CB-17 SCID female mice; conditions: compared to vehicle control
Excerpt: To test the efficacy of the compounds in vivo, studies were done in mouse xenografts. For all studies, general procedures for animal care and housing were done in accordance with the standard, Commission on Life Sciences, National Research Council, Standard operating procedures (SOPs) of Pharmaron, Inc (Beijing, China). The mice were kept in laminar flow rooms at constant temperature and humidity with 3-5 mice in each cage with bedding changed once weekly. Animals were housed in polycarbonate cage which is in the size of 300×180×150 mm^3 and in an environmentally monitored, well-ventilated room maintained at a temperature of (22±3° C.) and a relative humidity of 40%-70% on a 12 hour:12 hour light:dark cycle with full spectrum lighting. […]
Each mouse was inoculated subcutaneously on the right flank with HCC70 tumor cells (5×10^6) in 0.1 ml of RPMI-1640 Medium and Matrigel mixture (1:1 ratio) for tumor development. […] All study animals were monitored not only tumor growth but also behavior such as mobility, food and water consumption (by cage side checking only), body weight (BW), eye/hair matting and any other abnormal effect. Any mortality and/or abnormal clinical signs were recorded.
The measurement of tumor size was conducted twice weekly with a caliper and recorded. […]
Protocol-required measurements and observations were recorded manually onto excel spread sheets. […]

[2] = tested on: BRCA1; assay: DDR gene expression in HCC70 xenograft tumor cells; assay type: in vivo, CB-17 SCID mice; conditions: single intravenous dose 20 or 25 mg/kg; 6 and 24 hours after dose
Procedure: A triple-negative xenograft model of breast cancer was used in this experiment. CB-17 SCID mice were inoculated with the HCC70 cells as the in vivo model for triple negative breast cancer. Each mouse was inoculated subcutaneously on the right flank with HCC70 tumor cells (5×10^6) in 0.1 mL of RPMI-1640 Medium and Matrigel mixture (1:1 ratio) for tumor development. The treatment started when the mean tumor size reached approximately 100-150 mm^3. Mice were treated with a single dose of either vehicle, 20 mg/kg compound 4, or 25 mg/kg of compound 4 intravenously. 0.5, 6, and 24 hours post dose, tumor cells were collected and analyzed for gene expression.

[3] = tested on: non-CDK12/13 kinases; assay: Radiometric kinase panel, summary; assay type: biochemical, human; conditions: 1 μM
Procedure: The compounds 1-5 (see Table 1) were assayed for kinase activity at ProQinase (ProQinase GmbH, Reaction Biology; Freiburg, Germany) using their commercially available radiometric kinase assay services. Briefly, the compounds were provided as solids and were dissolved to 1×10^−03 M/100% DMSO stock solutions on the day of assay. All protein kinases were provided by ProQinase and were expressed in Sf9 insect cells or in E. coli as recombinant GST-fusion proteins or His-tagged proteins, either as full-length or enzymatically active fragments. All kinases were produced from human cDNAs and purified by either GSH-affinity chromatography or immobilized metal. The purity of the protein kinases was examined by SDS-PAGE/Coomassie staining, the identity was checked by mass spectroscopy. A radiometric protein kinase assay (^33PanQinase® Activity Assay) was used for measuring the kinase activity of the protein kinase. All kinase assays were performed in 96-well FlashPlates™ from PerkinElmer (Boston, Mass., USA) in a 50 microliter reaction volume. […]
Compound 4 was analyzed for selectivity against a panel of other kinases at ProQinase using their commercially available radiometric kinase assay services and the methods described in Example 1.

[4] = tested on: RNA polymerase II; assay: Inhibition of phosphorylation of RNA polymerase II in NCI-H82 cells; assay type: cell-based; conditions: Homo sapiens, 2 hours, phosphorylated/total RNA polymerase II
Procedure: CDK12 and CDK13 phosphorylate RNA polymerase II. The ability of compound 1 to inhibit phosphorylation of RNA polymerase II was analyzed in NCI-H82 cells. 200,000 cells were plated in each well of a 96 well MSD plate. Cells were treated with compound 1, THZ531 (a positive control), or E9 at concentrations between 4 μM to 126.4 pM (0.5 log serial dilutions) for 2 hours. THZ531 and E9 are further discussed in Gao et al, Cell Chemical Biology 2017. The amount of phosphorylated RNA polymerase II and the total amount of RNA polymerase II was analyzed using antibodies. The values were normalized by taking the ratio of the phosphorylated RNA polymerase II to the total RNA polymerase II. As depicted in FIG. 3A (THZ531), FIG. 3B (Compound 1), and Table 6, increasing the concentration of compound 1 results in a dose-specific increase in the inhibition of phosphorylation of RNA polymerase II.

C=CC(=O)Nc1ccc(C(=O)N2CC[C@@H](Nc3ncc(C#N)cn3)C2)cc1 [Compound 4, (R)-N-(4-(3-((5-cyanopyrimidin-2-yl)amino)pyrrolidine-1-carbonyl)phenyl)acrylamide]
T/C ([1]; 20 mg/kg intravenously biweekly for 14 days): −37%
T/C ([1]; 25 mg/kg intravenously biweekly for 14 days): −39%
BRCA1 expression in tumor cells [2]: reduced
average percent of inhibition against non-CDK12/13 kinases [3]: low average percent of inhibition

C=CC(=O)Nc1ccc(C(=O)N2CC[C@@H](Nc3ncc(Cl)c(OC)n3)C2)cc1 [Compound 1, (R)-N-(4-(3-((5-chloro-4-methoxypyrimidin-2-yl)amino)pyrrolidine-1-carbonyl)phenyl)acrylamide]
IC50 [4]: 12.5 nM
